Results taken from patent publication US20190284136A1, “INDOLINE DERIVATIVES” (ViiV HEALTHCARE UK LIMITED, priority 2016, published 2019).

System: HIV
Test: Table 1 IC50 of the examples (assay method not given; patent concerns inhibiting HIV replication)
Type: cell-based
Conditions: Human immunodeficiency virus 1

| SMILES | IC50 [µM] |
| --- | --- |
| Cc1ccc(C(=O)N2CCc3c2cc(C)c([C@H](OC(C)(C)C)C(=O)O)c3-c2cc(F)c3c(c2C)CCCO3)cc1Cl (atropisomer, axis not shown) [Example 115, (S)-2-(tert-Butoxy)-2-((R)-1-(3-chloro-4-methylbenzoyl)-4-(8-fluoro-5-methylchroman-6-yl)-6-methylindolin-5-yl)acetic acid] | 0.005 |
| CCCNC(=O)N1CCCc2c1cc(C)c(C(OC(C)(C)C)C(=O)O)c2-c1ccc(C)cc1 (stereo not shown) [Example 210, 2-(tert-Butoxy)-2-(7-methyl-1-(propylcarbamoyl)-5-(p-tolyl)-1,2,3,4-tetrahydroquinolin-6-yl)acetic acid] | 4.29 |
| COc1ccc(C(=O)N2CCc3c2cc(C)c([C@H](OC(C)(C)C)C(=O)O)c3-c2cc(F)c3c(c2C)CCCO3)cc1OC (atropisomer, axis not shown) [Example 86, (S)-2-(tert-Butoxy)-2-((R)-1-(3,4-dimethoxybenzoyl)-4-(8-fluoro-5-methylchroman-6-yl)-6-methylindolin-5-yl)acetic acid] | 0.005 |
| Cc1ccc(-c2c3c(cc(C)c2[C@H](OC(C)(C)C)C(=O)O)N(C(=O)c2cc(F)ccc2C)CC3)cc1 [Example 33] | 0.013 |
| Cc1cc2c(c(-c3cc(F)c4c(c3C)CCCO4)c1[C@H](OC(C)(C)C)C(=O)O)CCN2C(=O)c1cc(C(F)(F)F)ccc1F (atropisomer, axis not shown) [Example 155, (S)-2-(tert-Butoxy)-2-((R)-1-(2-fluoro-5-(trifluoromethyl)benzoyl)-4-(8-fluoro-5-methylchroman-6-yl)-6-methylindolin-5-yl)acetic acid] | 0.072 |
| Cc1cc2c(c(-c3cc(F)c4c(c3C)CCCO4)c1[C@H](OC(C)(C)C)C(=O)O)CCN2C(=O)c1cccc2c1OCC2 (atropisomer, axis not shown) [Example 100, (S)-2-(tert-Butoxy)-2-((R)-1-(2,3-dihydrobenzofuran-7-carbonyl)-4-(8-fluoro-5-methylchroman-6-yl)-6-methylindolin-5-yl)acetic acid] | 0.005 |
| COc1cc(OC)cc(C(=O)N2CCc3c2cc(C)c([C@H](OC(C)(C)C)C(=O)O)c3-c2cc(F)c3c(c2C)CCCO3)c1 (atropisomer, axis not shown) [Example 63, (S)-2-(tert-Butoxy)-2-((R)-1-(3,5-dimethoxybenzoyl)-4-(8-fluoro-5-methylchroman-6-yl)-6-methylindolin-5-yl)acetic acid] | 0.004 |
| Cc1ccc(-c2c3c(cc(C)c2[C@H](OC(C)(C)C)C(=O)O)N(C(=O)NC2CCCCC2)CC3)cc1 [Example 37, (S)-2-(tert-Butoxy)-2-(1-(cyclohexylcarbamoyl)-6-methyl-4-(p-tolyl)indolin-5-yl)acetic acid] | 0.08 |
| Cc1cc2c(c(-c3cc(F)c4c(c3C)CCCO4)c1[C@H](OC(C)(C)C)C(=O)O)CCN2C(=O)c1ccc(C(=O)N2CCCCC2)cc1 (atropisomer, axis not shown) [Example 112, (S)-2-(tert-Butoxy)-2-((R)-4-(8-fluoro-5-methylchroman-6-yl)-6-methyl-1-(4-(piperidine-1-carbonyl)benzoyl)indolin-5-yl)acetic acid] | 0.295 |
| Cc1ccc(-c2c3c(cc(C)c2C(OC(C)(C)C)C(=O)O)N(C(=O)C2CCCCC2)CC3)cc1 (stereo not shown) [Example 8, 2-(tert-Butoxy)-2-(1-(cyclohexanecarbonyl)-6-methyl-4-(p-tolyl)indolin-5-yl)acetic acid] | 0.015 |
| Cc1cc2c(c(-c3ccc4c(c3C)CCCO4)c1[C@H](OC(C)(C)C)C(=O)O)CCN2C(=O)c1cccc2c1OCCO2 (atropisomer, axis not shown) [Example 182, (S)-2-(tert-Butoxy)-2-((R)-1-(2,3-dihydrobenzo[b][1,4]dioxine-5-carbonyl)-6-methyl-4-(5-methylchroman-6-yl)indolin-5-yl)acetic acid] | 0.005 |
| Cc1cncc(C(=O)N2CCc3c2cc(C)c([C@H](OC(C)(C)C)C(=O)O)c3-c2cc(F)c3c(c2C)CCCO3)c1 (atropisomer, axis not shown) [Example 81, (S)-2-(tert-Butoxy)-2-((R)-4-(8-fluoro-5-methylchroman-6-yl)-6-methyl-1-(5-methylnicotinoyl)indolin-5-yl)acetic acid] | 0.014 |
| COc1ccc(C)cc1C(=O)N1CCc2c1cc(C)c([C@H](OC(C)(C)C)C(=O)O)c2-c1cc(F)c2c(c1C)CCCO2 (atropisomer, axis not shown) [Example 99, (S)-2-(tert-Butoxy)-2-((R)-4-(8-fluoro-5-methylchroman-6-yl)-1-(2-methoxy-5-methylbenzoyl)-6-methylindolin-5-yl)acetic acid] | 0.004 |
| Cc1cc2c(c(-c3cc(F)c4c(c3C)CCCO4)c1[C@H](OC(C)(C)C)C(=O)O)CCN2C(=O)C1CCOC1 (stereo partly drawn) [Example 134, (2S)-2-(tert-Butoxy)-2-((4R)-4-(8-fluoro-5-methylchroman-6-yl)-6-methyl-1-(tetrahydrofuran-3-carbonyl)indolin-5-yl)acetic acid] | 0.453 |
| Cc1cc2c(c(-c3cc(F)c4c(c3C)CCCO4)c1[C@H](OC(C)(C)C)C(=O)O)CCN2C(=O)c1cccc2c1OCO2 (atropisomer, axis not shown) [Example 114, (S)-2-((R)-1-(Benzo[d][1,3]dioxole-4-carbonyl)-4-(8-fluoro-5-methylchroman-6-yl)-6-methylindolin-5-yl)-2-(tert-butoxy)acetic acid] | 0.005 |
| Cc1cc2c(c(-c3cc(F)c4c(c3C)CCCO4)c1[C@H](OC(C)(C)C)C(=O)O)CCN2C(=O)c1ccc2c(c1)CCO2 (atropisomer, axis not shown) [Example 127, (S)-2-(tert-Butoxy)-2-((R)-1-(2,3-dihydrobenzofuran-5-carbonyl)-4-(8-fluoro-5-methylchroman-6-yl)-6-methylindolin-5-yl)acetic acid] | 0.002 |
| COc1ccc(OC)c(C(=O)N2CCc3c2cc(C)c([C@H](OC(C)(C)C)C(=O)O)c3-c2cc(F)c3c(c2C)CCCO3)c1 (atropisomer, axis not shown) [Example 106, (S)-2-(tert-Butoxy)-2-((R)-1-(2,5-dimethoxybenzoyl)-4-(8-fluoro-5-methylchroman-6-yl)-6-methylindolin-5-yl)acetic acid] | 0.011 |
| Cc1ccc(C(=O)N2CCc3c2cc(C)c([C@H](OC(C)(C)C)C(=O)O)c3-c2ccc3c(c2C)CCCO3)cn1 (atropisomer, axis not shown) [Example 191, (S)-2-(tert-Butoxy)-2-((R)-6-methyl-4-(5-methylchroman-6-yl)-1-(6-methylnicotinoyl)indolin-5-yl)acetic acid] | 0.868 |
| Cc1cc2c(c(-c3cc(F)c4c(c3C)CCCO4)c1[C@H](OC(C)(C)C)C(=O)O)CCN2C(=O)c1cc(F)cc(C(F)(F)F)c1 [Example 143, (S)-2-(tert-Butoxy)-2-((R)-1-(3-fluoro-5-(trifluoromethyl)benzoyl)-4-(8-fluoro-5-methylchroman-6-yl)-6-methylindolin-5-yl)acetic acid] | 0.014 |
| Cc1cc(Cl)cc(C(=O)N2CCc3c2cc(C)c([C@H](OC(C)(C)C)C(=O)O)c3-c2cc(F)c3c(c2C)CCCO3)c1 (atropisomer, axis not shown) [Example 141, (S)-2-(tert-Butoxy)-2-((R)-1-(3-chloro-5-methylbenzoyl)-4-(8-fluoro-5-methylchroman-6-yl)-6-methylindolin-5-yl)acetic acid] | 0.006 |
| Cc1cc2c(c(-c3cc(F)c4c(c3C)CCCO4)c1[C@H](OC(C)(C)C)C(=O)O)CCN2C(=O)c1cc(F)ccc1F (atropisomer, axis not shown) [Example 109, (S)-2-(tert-Butoxy)-2-((R)-1-(2,5-difluorobenzoyl)-4-(8-fluoro-5-methylchroman-6-yl)-6-methylindolin-5-yl)acetic acid] | 0.011 |
| COc1ccc(C(=O)N2CCc3c2cc(C)c([C@H](OC(C)(C)C)C(=O)O)c3-c2ccc3c(c2C)CCCO3)cc1OC (atropisomer, axis not shown) [Example 186, (S)-2-(tert-Butoxy)-2-((R)-1-(3,4-dimethoxybenzoyl)-6-methyl-4-(5-methylchroman-6-yl)indolin-5-yl)acetic acid] | 0.006 |
| Cc1cc2c(c(-c3cc(F)c4c(c3C)CCCO4)c1[C@H](OC(C)(C)C)C(=O)O)CCN2C(=O)c1ccc(Cl)cc1Cl (atropisomer, axis not shown) [Example 70, (S)-2-(tert-Butoxy)-2-((R)-1-(2,4-dichlorobenzoyl)-4-(8-fluoro-5-methylchroman-6-yl)-6-methylindolin-5-yl)acetic acid] | 0.005 |
| Cc1ccc(-c2c3c(cc(C)c2[C@H](OC(C)(C)C)C(=O)O)N(C(=O)c2cccnc2)CC3)cc1 [Example 39, (S)-2-(tert-Butoxy)-2-(6-methyl-1-nicotinoyl-4-(p-tolyl)indolin-5-yl)acetic acid] | 0.027 |
| Cc1ccc(-c2c3c(cc(C)c2C(OC(C)(C)C)C(=O)O)N(C(=O)c2cccc(F)c2)CCC3)cc1 (stereo not shown) [Example 214, 2-(tert-Butoxy)-2-(1-(3-fluorobenzoyl)-7-methyl-5-(p-tolyl)-1,2,3,4-tetrahydroquinolin-6-yl)acetic acid] | 3.56 |
| COc1cccc(C(=O)N2CCc3c2cc(C)c([C@H](OC(C)(C)C)C(=O)O)c3-c2ccc(C)cc2)c1F [Example 20, (S)-2-(tert-Butoxy)-2-(1-(2-fluoro-3-methoxybenzoyl)-6-methyl-4-(p-tolyl)indolin-5-yl)acetic acid] | 0.066 |
| Cc1ccc(-c2c3c(cc(C)c2[C@H](OC(C)(C)C)C(=O)O)N(C(=O)c2ccc(F)cc2Cl)CC3)cc1 [Example 19, (S)-2-(tert-Butoxy)-2-(1-(2-chloro-4-fluorobenzoyl)-6-methyl-4-(p-tolyl)indolin-5-yl)acetic acid] | 0.005 |
| Cc1cc2c(c(-c3cc(F)c4c(c3C)CCCO4)c1[C@H](OC(C)(C)C)C(=O)O)CCN2C(=O)c1cccc(C(F)(F)F)c1 (atropisomer, axis not shown) [Example 93, (S)-2-(tert-Butoxy)-2-((R)-4-(8-fluoro-5-methylchroman-6-yl)-6-methyl-1-(3-(trifluoromethyl)benzoyl)indolin-5-yl)acetic acid] | 0.019 |
